Reference: ChEMBL document CHEMBL5338715, “Identification of (S)-1-(2-(2,4-difluorophenyl)-4-oxothiazolidin-3-yl)-3-(4-((7-(3-(4-ethylpiperazin-1-yl)propoxy)-6-methoxyquinolin-4-yl)oxy)-3,5-difluorophenyl)urea as a potential anti-colorectal cancer agent” (Eur J Med Chem, 2022)
Each block holds one compound with its values, some of them ahead of it. Calls of active or inactive are those of the source. No cut-off for these calls is given here.

Tests used:
COLO 205 [1] = test: cells; settings: Homo sapiens
COLO 205 [2] = test: Induction of apoptosis in human COLO 205 cells assessed as necrotic cells at 1 uM incubated for 72 hrs by Annexin FITC-A staining based flow cytometry (reference value: 9.65 %); type: functional
COLO 205 [3] = test: Induction of apoptosis in human COLO 205 cells assessed as early apoptotic cells at 0.33 uM incubated for 72 hrs by Annexin FITC-A staining based flow cytometry (reference value: 2.54 %); type: functional
COLO 205 [4] = test: Induction of cell cycle arrest in human COLO 205 cells assessed as accumulation at G2 phase at 0.037 uM incubated for 24 hrs by flow cytometry (reference value: 6.8 %); type: functional
COLO 205 [5] = test: Induction of apoptosis in human COLO 205 cells assessed as late apoptotic cells at 1 uM incubated for 72 hrs by Annexin FITC-A staining based flow cytometry (reference value: 9.15 %); type: functional
COLO 205 [6] = test: Induction of apoptosis in human COLO 205 cells assessed as late apoptotic cells at 0.037 uM incubated for 72 hrs by Annexin FITC-A staining based flow cytometry (reference value: 9.15 %); type: functional
COLO 205 [7] = test: Induction of apoptosis in human COLO 205 cells assessed as necrotic cells at 0.33 uM incubated for 72 hrs by Annexin FITC-A staining based flow cytometry (reference value: 9.65 %); type: functional
COLO 205 [8] = test: Induction of apoptosis in human COLO 205 cells assessed as early apoptotic cells at 0.037 uM incubated for 72 hrs by Annexin FITC-A staining based flow cytometry (reference value: 2.54 %); type: functional
COLO 205 [9] = test: Induction of cell death in human COLO 205 cells at 0.11 to 1 uM incubated for 24 hrs by flow cytometry; type: functional, cell-based; settings: dose 0.11-1 µM
COLO 205 [10] = test: Induction of cell cycle arrest in human COLO 205 cells assessed as accumulation at S phase at 0.037 uM incubated for 24 hrs by flow cytometry (reference value: 40.8 %); type: functional
COLO 205 [11] = test: Induction of apoptosis in human COLO 205 cells assessed as early apoptotic cells at 1 uM incubated for 72 hrs by Annexin FITC-A staining based flow cytometry (reference value: 2.54 %); type: functional
COLO 205 [12] = test: Induction of apoptosis in human COLO 205 cells assessed as late apoptotic cells at […] incubated for 72 hrs by Annexin FITC-A staining based flow cytometry (reference value: 9.15 %); type: functional; settings: dose 0.11 µM
COLO 205 [13] = test: Induction of apoptosis in human COLO 205 cells assessed as necrotic cells at […] incubated for 72 hrs by Annexin FITC-A staining based flow cytometry (reference value: 9.65 %); type: functional; settings: dose 0.11 µM
[14] = Cytotoxicity against human FHC cells assessed as cell growth inhibition by MTT assay; type: toxicity, cell-based
COLO 205 [15] = test: Induction of apoptosis in human COLO 205 cells assessed as early apoptotic cells at […] incubated for 72 hrs by Annexin FITC-A staining based flow cytometry (reference value: 2.54 %); type: functional; settings: dose 0.11 µM
COLO 205 [16] = test: Induction of cell cycle arrest in human COLO 205 cells assessed as accumulation at G1 phase at 0.037 uM incubated for 24 hrs by flow cytometry (reference value: 47.9 %); type: functional
COLO 205 [17] = test: Induction of apoptosis in human COLO 205 cells assessed as viable cells at 0.33 uM incubated for 72 hrs by Annexin FITC-A staining based flow cytometry (reference value: 78.7 %); type: functional; settings: read-out: Activity
COLO 205 [18] = test: Induction of apoptosis in human COLO 205 cells assessed as viable cells at 0.037 uM incubated for 72 hrs by Annexin FITC-A staining based flow cytometry (reference value: 78.7 %); type: functional; settings: read-out: Activity
COLO 205 [19] = test: Induction of apoptosis in human COLO 205 cells assessed as viable cells at […] incubated for 72 hrs by Annexin FITC-A staining based flow cytometry (reference value: 78.7 %); type: functional; settings: dose 0.11 µM, read-out: Activity
COLO 205 [20] = test: Induction of apoptosis in human COLO 205 cells assessed as late apoptotic cells at 0.33 uM incubated for 72 hrs by Annexin FITC-A staining based flow cytometry (reference value: 9.15 %); type: functional
COLO 205 [21] = test: Induction of apoptosis in human COLO 205 cells assessed as viable cells at 1 uM incubated for 72 hrs by Annexin FITC-A staining based flow cytometry (reference value: 78.7 %); type: functional; settings: read-out: Activity
[22] = Metabolic stability in human liver microsomes assessed as half life at 1 uM measured upto 45 mins in presence of NADPH by LC-MS/MS analysis; type: ADME, Microsome
COLO 205 [23] = test: Induction of apoptosis in human COLO 205 cells assessed as necrotic cells at 0.037 uM incubated for 72 hrs by Annexin FITC-A staining based flow cytometry (reference value: 9.65 %); type: functional
HCT-116 = test: cells; settings: Homo sapiens
BaF3 [24] = test: cells; settings: Mus musculus, BaF3, 72 h
BaF3 [25] = test: cells; settings: Mus musculus, BaF3, 72 h; remark: listed apart in the source
HT-29 = test: cells; settings: Homo sapiens

Compound: CCN1CCN(CCCOc2cc3nccc(Oc4c(F)cc(NC(=O)NN5C(=O)CS[C@H]5c5ccc(F)cc5F)cc4F)c3cc2OC)CC1
IC50 (COLO 205 [1]): 42 nM
Activity (COLO 205 [2]): 13.9%
Activity (COLO 205 [3]): 5.19%
Activity (COLO 205 [4]): 6.2%
Activity (COLO 205 [5]): 64.7%
Activity (COLO 205 [6]): 24.8%
Activity (COLO 205 [7]): 25%
Activity (COLO 205 [8]): 6.59%
Activity (COLO 205 [9]): Active
Activity (COLO 205 [10]): 38.3%
Activity (COLO 205 [11]): 7.41%
Activity (COLO 205 [12]): 47.9%
Activity (COLO 205 [13]): 22.7%
IC50 [14]: > 10000 nM
Activity (COLO 205 [15]): 6.29%
Activity (COLO 205 [16]): 51.4%
viability at 0.33 µM (COLO 205 [17]): 15.4%
viability at 0.037 µM (COLO 205 [18]): 63.4%
viability at […] (COLO 205 [19]): 23.1%
Activity (COLO 205 [20]): 54.4%
viability at 1 µM (COLO 205 [21]): 14%
half-life at 1 µM [22]: 2.83 h
Activity (COLO 205 [23]): 5.23%

Compound: CCN(CC)CCCOc1cc2nccc(Oc3c(F)cc(NC(=O)NN4C(=O)CSC4c4c(F)cccc4F)cc3F)c2cc1OC (centres undefined)
IC50 (HCT-116): 440 nM
IC50 (BaF3 [24]): 94 nM
IC50 [14]: 3800 nM
IC50 (BaF3 [25]): 220 nM
IC50 (HT-29): 140 nM

Compound: CCN1CCN(CCCOc2cc3nccc(Oc4c(F)cc(NC(=O)NN5C(=O)CSC5c5ccccc5)cc4F)c3cc2OC)CC1 (centres undefined)
IC50 (HCT-116): 210 nM
IC50 (BaF3 [24]): 140 nM
IC50 (BaF3 [25]): 260 nM
IC50 (HT-29): 140 nM

Compound: CNC(=O)c1cc(Oc2ccc(NC(=O)Nc3ccc(Cl)c(C(F)(F)F)c3)c(F)c2)ccn1 [REGORAFENIB]
IC50 (HCT-116): 3500 nM
IC50 (HT-29): 8600 nM

Compound: CCN1CCN(CCCOc2cc3nccc(Oc4c(F)cc(NC(=O)NN5C(=O)CS[C@@H]5c5ccc(F)cc5F)cc4F)c3cc2OC)CC1
IC50 (COLO 205 [1]): 63 nM
IC50 [14]: 4500 nM
half-life at 1 µM [22]: 2.58 h

Compound: CCN(CC)CCCOc1cc2nccc(Oc3ccc(CC(=O)NN4C(=O)CSC4c4c(F)cccc4F)cc3)c2cc1OC (centres undefined)
IC50 (HCT-116): 7800 nM
IC50 (BaF3 [24]): 1300 nM
IC50 (BaF3 [25]): 2600 nM
IC50 (HT-29): 1600 nM

Compound: CCN(CC)CCCOc1cc2nccc(N(C)c3ccc(NC(=O)NN4C(=O)CSC4c4c(F)cccc4F)cc3)c2cc1OC (centres undefined)
IC50 (HCT-116): > 10000 nM
IC50 (BaF3 [24]): 2200 nM
IC50 (BaF3 [25]): 6900 nM

Compound: COc1cc2nccc(Oc3c(F)cc(NC(=O)NN4C(=O)CSC4c4c(F)cccc4F)cc3F)c2cc1OC (centres undefined)
IC50 (HCT-116): > 10000 nM
IC50 (BaF3 [24]): 170 nM
IC50 (BaF3 [25]): 650 nM
IC50 (HT-29): 4100 nM

Continued, values first:

IC50 (HCT-116): 150 nM
IC50 (BaF3 [24]): 58 nM
IC50 (BaF3 [25]): 120 nM
IC50 (HT-29): 530 nM
Compound: CCN(CC)CCCOc1cc2nccc(Oc3ccc(NC(=O)NN4C(=O)CSC4c4c(F)cccc4F)cc3)c2cc1OC (centres undefined)

IC50 (HCT-116): 110 nM
IC50 (BaF3 [24]): 59 nM
IC50 (BaF3 [25]): 130 nM
IC50 (HT-29): 220 nM
Compound: CCN1CCN(CCCOc2cc3nccc(Oc4ccc(NC(=O)NN5C(=O)CSC5c5c(F)cccc5F)cc4)c3cc2OC)CC1 (centres undefined)

IC50 (HCT-116): 200 nM
IC50 (BaF3 [24]): 71 nM
IC50 (BaF3 [25]): 140 nM
IC50 (HT-29): 520 nM
Compound: CCN1CCN(CCCOc2cc3nccc(Oc4c(F)cc(NC(=O)NN5C(=O)CSC5c5ccc(F)cc5)cc4F)c3cc2OC)CC1 (centres undefined)

IC50 (HCT-116): 200 nM
IC50 (BaF3 [24]): 110 nM
IC50 (BaF3 [25]): 160 nM
IC50 (HT-29): 680 nM
Compound: CCN(CC)CCCOc1cc2nccc(Oc3ccc(NC(=O)NN4C(=O)CSC4c4c(F)cccc4F)cc3OC)c2cc1OC (centres undefined)
